Data taken from PMC11228623, “Photoswitchable glycoligands targeting Pseudomonas aeruginosa LecA” (Beilstein Journal of Organic Chemistry, 2024).

Tests used:
[1] = Photostationary state composition (E/Z ratios) by 1H NMR and UV–vis after irradiation; type: physicochemical; conditions: for Z/E PSS370: after 370 nm irradiation; for E/Z PSS485: after 485 nm irradiation; for E-isomer mixed with the Z-isomer as established by PSS370: Z-isomer samples used for ITC
Procedure: General experimental details. Commercially available solvents and reagents were used without further purification. Reactions carried out under anhydrous conditions are performed under argon in glassware previously dried in an oven. DMF and THF were previously dried through alumina or molecular sieves-containing cartridges using a solvent purificator MBRAUN SPS-800. All the reactions with azobenzene-containing substrates were carried out in the dark. Reactions were monitored by TLC on Silica Gel 60F-254 plates with detection by UV (254 nm or 365 nm) or by spraying with 10% H2SO4 in EtOH and heating about 30 s at 400–600 °C. Column chromatography purification was performed on CombiFlash® Rf+ and RediSep® RF or RF Gold normal phase silica columns (with UV detection at 254 and 350 nm for all azobenzene derivatives), or by flash column chromatography employing silica gel (60 Å pore size, 40–63 µm). ^1H and ^13C NMR spectra were recorded on a JEOL ECS-400 spectrometer or on Bruker Avance 300 and 400 spectrometers. Structural assignments were made with additional information from gCOSY, HMBC, and gHMQC experiments. High-resolution mass spectra (HRMS) were performed on a Bruker maXis mass spectrometer by the SALSA platform from ICOA laboratory or on an Agilent 1260 Infinity system with a quadrupole time-of-light (Q-TOF) mass analyzer. Melting points were measured with a Köfler bench previously calibrated using the usual standard references or on a digital melting point capillary apparatus. Specific optical rotations were measured in solution using sodium light at 589 nm where no absorption occurred for all compounds. Absorption spectra were recorded on a Cary-5000 spectrophotometer from Agilent Technologies. Photochromic reactions were induced in situ by a continuous irradiation Hg/Xe lamp (Hamamatsu, LC6- or LC8-Lightningcure, 200 W) equipped with narrow band interference filters of appropriate wavelengths: Semrock BP-370/36 for λirr = 370 nm, Semrock FF01-438/24-25 for λirr = 438 nm, Semrock FF01-485/20-25 for λirr = 485 nm. The irradiation power was measured using a photodiode from Ophir (PD300-UV) and corrected after a measurement with an additional Schott long pass filter (LP-545) to measure NIR contribution (PLP) that is let through the Semrock filter (PTotal), considering a 90% transmittance: Pλirr = PTotal − (10/9 × PLP). The photoconversion reaction was followed by a combination of ^1H NMR and UV–vis absorption spectra, realized by successive irradiations at 370 nm (438 or 485 nm). The E/Z ratios were determined by integration of the azobenzene proton signals of each isomer. A quartz cell of 10 mm path length has been used for solution measurement.
The photoconversion yields were measured from a solution of the compounds in deuterated solvent and monitored by ^1H NMR and UV–vis absorption, after successive irradiations at 370 nm (438 nm or 485 nm) in the case of the PSS. The E/Z ratios were determined by integration of characteristic of each isomer.

LecA [2] = molecular target: T1, LecA (Pseudomonas aeruginosa, UniProt Q05097); conditions: ref [5]–[8][32]; cited from earlier work
T1 construct: LecA was expressed and purified as previously described; made in house
T1 sequence (Q05097 whole entry): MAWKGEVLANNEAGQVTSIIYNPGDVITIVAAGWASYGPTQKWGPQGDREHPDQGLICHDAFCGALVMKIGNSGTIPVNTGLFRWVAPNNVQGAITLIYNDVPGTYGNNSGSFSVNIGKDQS

LecA [3] = molecular target: T1, LecA; assay: Isothermal titration calorimetry (ITC) of ligand binding to LecA; conditions: ITC Kd, E-isomer the better binder
Source text: The interaction of compounds 1–5 with LecA was characterized by ITC analysis for both the E- and Z-isomers. As the initial isomer state of the galactosyl azobenzenes is the E-form, ITC measurements made on E-isomers correspond to 100% purity of them. After 370 nm irradiation to induce the photoizomerisation process, a photostationary state is reached between E- and Z-isomers. For ITC measurements made on Z-isomers, the percentage of isomers is shown in the column Z/E (PSS370) of Table 1. Depending on the corresponding galactosyl azobenzenes, the Z-isomer is pure from 87 to 99%. Spectroscopy measurements were performed on ligand solution just before each experiment to check the efficiency of the isomerization, with results as indicated in Table 2.
Isothermal titration calorimetry: LecA was expressed and purified as previously described. All experiments were performed at 25 °C with an ITC200 isothermal titration calorimeter (Microcal-Malvern Panalytical, Grenoble, France). The lyophilized LecA protein was dissolved in a buffer composed of 20 mM Tris^.HCl (pH 7.5), 100 mM NaCl and 100 μM CaCl2 with 5% or 10% DMSO final. All compounds were first dissolved in DMSO then in same buffer for a final concentration of 5% or 10% DMSO. […]

[4] = Fatigue resistance under alternated UV/vis irradiation cycles; type: physicochemical; conditions: alternated UV (370 nm) and visible irradiation cycles, aqueous media
Source text: Figure 2 (Left) Absorption spectra and (right) fatigue resistance of 1 under alternated 370/485 nm irradiations in Tris buffer/DMSO 95:5 at rt: E-1 (black line), PSS370 (blue line), PSS485 (red line). Irradiation conditions at 370 nm: 12.8 mW·cm^−2, 20 s; at 485 nm: 1.5 mW·cm^−2, 480 s.
General procedure for the fatigue resistance measurements
Starting from a solution of compound containing 100% of the E-isomer, the solution was irradiated sequentially at 370 nm and at 485 nm or 438 nm. The absorbance was measured before and after each illumination realized with constant optical length distance. The sequence, which constitutes a cycle, was repeated for a minimum of 10 times.
Fatigue resistance of the compound 2
Figure S15: Left: absorption spectra of E-2 (black line), PSS370 (blue line), PSS438 (red line) in Tris buffer/ DMSO (9/1); Right: Fatigue resistance followed by the absorption band at 3 21 nm under alternate 3 70 nm/438 nm irradiation cycles in Tris buffer/DMSO (9/1). Irradiation conditions: 40 s at P 370 = 14.1 mW cm-2 and 180 s at P 438 […]
Fatigue resistance of the compound 3
Figure S16: Left: absorption spectra of E-3 (black line), PSS 370 (blue line), PSS 485 (red line) in Tris buffer/DMSO (9/1); Right: Fatigue resistance followed by the absorption band at 3 64 nm under alternate 3 70 nm/485 nm irradiation cycles in Tris buffer/DMSO (9/1). […]

[5] = Thermal Z→E isomerization tracked by UV–vis absorption (half-life of Z-isomers); type: physicochemical; conditions: Tris buffer with 5% DMSO, pH 7.5, solvent not given; read-out: t1/2 (thermostability of Z-isomer) (converted)
Source text: The photoswitching properties of galactosyl azobenzenes 1–5 were realized in water or in Tris buffer containing 5 to 10% DMSO, in accordance with the biophysical evaluation conditions by using ITC. All these compounds undergo reversible photoisomerization under UV–vis irradiation in aqueous solution. […] After irradiation at 370 nm to induce the E-to-Z photoisomerization, the band at 353 nm decreases concomitantly to the appearance of two new bands at 312 and 438 nm (Figure 2, blue line). Two isosbestic points can also be observed at 310 and 429 nm. The back Z→E photoisomerization can be achieved by illumination at 485 nm (Figure 2, red line). ^1H NMR spectroscopy has been used to determine the Z/E ratios during irradiation, showing an excellent photoconversion yield of Z/E = 99:1 at PSS370, and E/Z = 87:13 at PSS485 in D2O/5% DMSO (Figure 3). […] All the photophysical properties of compounds 1–5 are summarized in Table 1 (spectra are shown in Figure S1–S24 in Supporting Information File 1). Concerning the meta-substituted azobenzene 2, a 30 nm blue shift is observed for the π→π* transition (λmax = 321 nm) as well as a lower absorption coefficient compared to the para-derivative 1 (Table 1, entries 3 and 4 vs entries 1 and 2), probably due to less-conjugated azobenzene. […]
The half-lif e o f Z -1 at roo m temperatur e wa s the n calculated: […]

| Z/E PSS370 ([1]; Tris/DMSO 10%) | E/Z PSS485 ([1]; Tris/DMSO 10%) | E-isomer mixed with the Z-isomer as established by PSS370 [1] [%] | SMILES | difference in affinity between E- and Z-isomers (LecA [3]) [fold] | Z/E PSS370 ([1]; H2O) | E/Z PSS485 ([1]; H2O) | Z/E PSS370 ([1]; Tris/DMSO 5%) | E/Z PSS485 ([1]; Tris/DMSO 5%) | further results |
| --- | --- | --- | --- | --- | --- | --- | --- | --- | --- |
| 99/1 | 72/28 | – | NCCOc1ccc(/N=N/c2cccc(S[C@@H]3O[C@H](CO)[C@H](O)[C@H](O)[C@H]3O)c2)cc1 [compound 4] | – | – | – | – | – | – |
| 92/8 | 60/40 | 8 | NCCOc1ccc(/N=N/c2ccccc2S[C@@H]2O[C@H](CO)[C@H](O)[C@H](O)[C@H]2O)cc1 [compound 5] | – | – | – | – | – | – |

More lines, now with the values behind:

| SMILES | Z/E PSS370 ([1]; Tris/DMSO 10%) | E/Z PSS485 ([1]; Tris/DMSO 10%) | E-isomer mixed with the Z-isomer as established by PSS370 [1] [%] | difference in affinity between E- and Z-isomers (LecA [3]) [fold] | Z/E PSS370 ([1]; H2O) | E/Z PSS485 ([1]; H2O) | Z/E PSS370 ([1]; Tris/DMSO 5%) | E/Z PSS485 ([1]; Tris/DMSO 5%) | further results |
| --- | --- | --- | --- | --- | --- | --- | --- | --- | --- |
| O=C[C@H](O)[C@@H](O)[C@@H](O)[C@H](O)CO [ᴅ-galactose] | – | – | – | – | – | – | – | – | Kd (LecA [2]): 34 µM |
| NCCOc1ccc(/N=N/c2ccc(S[C@@H]3O[C@H](CO)[C@H](O)[C@H](O)[C@H]3O)cc2)cc1 [compound 3] | 99/1 | 71/29 | – | 2 | 99/1 | 73/27 | – | – | – |
| NCCOc1ccc(/N=N/c2ccc(O[C@@H]3O[C@H](CO)[C@H](O)[C@H](O)[C@H]3O)cc2)cc1 [compound 1] | – | – | – | 3 | 99/1 | 87/13 | 99/1 | 87/13 | fatigue resistance [4]: no degradation has been observed after more than 10 UV–vis irradiation cycles |
| NCCOc1cccc(/N=N/c2cccc(O[C@@H]3O[C@H](CO)[C@H](O)[C@H](O)[C@H]3O)c2)c1 [compound 2] | 87/13 | – | 13 | – | – | – | 87/13 | 71/29 | half-life [5]: 29 days; E/Z PSS438 ([1]; Tris/DMSO 10%, after 438 nm irradiation (footnote d)): 74/26^d |
